Results from ChEMBL document CHEMBL1201862, “PubChem BioAssay data set” (2004).
Calls of active or inactive are those of the source.

How the values were obtained:
[1] = target: Mitochondrial peptide methionine sulfoxide reductase (Bos taurus, UniProt P54149); format: functional;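 note: absorbance read-out, biochemical high-throughput dose-response screen for MsrA inhibitors, confirmatory; recombinant bovine MsrA coupled to E. coli TrxB with NADPH and selenocystamine; potency is for inhibitors of MsrA activity on DMSO substrate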
[2] = target: T1, Corticotropin-releasing factor receptor 2/Corticotropin-releasing factor-binding protein (Homo sapiens, UniProt P24387+Q13324); test: activators of CRF receptor 2 with binding protein – uHTS hits, confirmation (AID 602473); format: functional; conditions: read-out: EC50_Mean
T1 sequence (Q13324 whole entry): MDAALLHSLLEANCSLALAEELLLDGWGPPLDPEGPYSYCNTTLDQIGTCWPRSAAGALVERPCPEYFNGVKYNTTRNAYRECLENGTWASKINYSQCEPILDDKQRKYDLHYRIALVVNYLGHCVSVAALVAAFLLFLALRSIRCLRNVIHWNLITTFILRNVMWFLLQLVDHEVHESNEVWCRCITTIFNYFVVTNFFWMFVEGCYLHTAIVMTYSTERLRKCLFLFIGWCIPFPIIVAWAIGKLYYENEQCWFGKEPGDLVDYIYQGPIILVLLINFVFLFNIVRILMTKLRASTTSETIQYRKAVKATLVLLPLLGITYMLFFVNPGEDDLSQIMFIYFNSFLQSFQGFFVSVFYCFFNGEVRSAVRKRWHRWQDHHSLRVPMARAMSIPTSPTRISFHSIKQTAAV
T1 sequence (P24387 whole entry): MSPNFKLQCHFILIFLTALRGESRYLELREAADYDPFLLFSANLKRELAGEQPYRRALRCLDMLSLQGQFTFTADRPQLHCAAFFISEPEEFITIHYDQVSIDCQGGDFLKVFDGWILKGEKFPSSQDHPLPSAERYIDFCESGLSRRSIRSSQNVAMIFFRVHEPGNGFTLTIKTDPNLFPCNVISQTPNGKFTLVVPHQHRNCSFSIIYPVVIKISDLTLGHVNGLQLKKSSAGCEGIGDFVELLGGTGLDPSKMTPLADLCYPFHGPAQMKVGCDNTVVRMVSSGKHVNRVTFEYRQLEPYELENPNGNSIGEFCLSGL

[3] = blockers of CRF-binding protein–CRF-R2 complex – cell-based, uHTS hits, 384-well, dose response (AID 651639); format: functional, Homo sapiens; conditions: read-out: IC50_Mean
[4] = target: T1, Corticotropin-releasing factor receptor 2/Corticotropin-releasing factor-binding protein; test: Dose Response confirmation of uHTS hits for small molecule antagonists of the CRF-binding protein and CRF-R2 receptor complex.; format: functional; conditions: read-out: IC50_Mean
[5] = target: Sentrin-specific protease 1 (Homo sapiens, UniProt Q9P0U3); test: Dose response confirmation of small molecule inhibitors of the catalytic domain of the SUMO protease, SENP1 in a FRET assay.; format: functional; conditions: read-out: IC50_Mean
Protein RecA = target: T2, Protein RecA (Mycobacterium tuberculosis, UniProt P9WHJ3); test: Fluorescence Cell-Free Homogeneous Dose Retest to Identify Inhibitors of RecA-Intein Splicing Activity. [Related pubchem assays (depositor defined):AID2097, AID2223, AID489010, AID492950]; format: functional
T2 sequence (P9WHJ3 whole entry): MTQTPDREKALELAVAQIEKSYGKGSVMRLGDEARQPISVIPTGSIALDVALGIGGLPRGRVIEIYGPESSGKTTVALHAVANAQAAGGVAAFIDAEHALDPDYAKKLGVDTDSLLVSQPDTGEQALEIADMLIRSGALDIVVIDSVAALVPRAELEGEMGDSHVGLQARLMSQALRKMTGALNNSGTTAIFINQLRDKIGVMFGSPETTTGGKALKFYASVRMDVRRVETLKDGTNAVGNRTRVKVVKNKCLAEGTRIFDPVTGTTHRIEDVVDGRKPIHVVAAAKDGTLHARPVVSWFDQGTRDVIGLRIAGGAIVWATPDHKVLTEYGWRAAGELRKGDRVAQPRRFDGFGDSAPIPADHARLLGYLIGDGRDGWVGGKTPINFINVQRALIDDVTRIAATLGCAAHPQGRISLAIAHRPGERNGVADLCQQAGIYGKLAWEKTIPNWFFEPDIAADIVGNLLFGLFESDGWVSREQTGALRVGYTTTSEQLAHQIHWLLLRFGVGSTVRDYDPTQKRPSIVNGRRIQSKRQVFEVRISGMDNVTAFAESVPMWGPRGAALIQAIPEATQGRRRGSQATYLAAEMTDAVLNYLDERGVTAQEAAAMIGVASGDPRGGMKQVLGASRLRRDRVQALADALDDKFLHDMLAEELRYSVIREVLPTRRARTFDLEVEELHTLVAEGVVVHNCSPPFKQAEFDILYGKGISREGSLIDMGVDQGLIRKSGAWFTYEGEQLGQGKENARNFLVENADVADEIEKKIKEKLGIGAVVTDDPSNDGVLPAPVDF

[6] = target: T3, Sentrin-specific protease 8 (Homo sapiens, UniProt Q96LD8); format: functional;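 note: kinetic enzyme assay of SENP8 cleaving a Nedd8 protein substrate, dose-response confirmation of screening hits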
T3 sequence (Q96LD8 whole entry): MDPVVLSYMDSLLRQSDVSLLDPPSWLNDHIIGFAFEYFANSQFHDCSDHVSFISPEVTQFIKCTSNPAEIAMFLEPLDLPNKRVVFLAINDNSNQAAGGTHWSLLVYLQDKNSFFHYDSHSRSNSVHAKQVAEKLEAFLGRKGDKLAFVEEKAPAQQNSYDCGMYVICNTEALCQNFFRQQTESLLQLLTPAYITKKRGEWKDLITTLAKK

[7] = target: T4, Tyrosyl-DNA phosphodiesterase 2 (Homo sapiens, UniProt O95551); test: potency against TDP2 phosphodiesterase activity – biochemical, epi absorbance, IC50, dose response (AID 743297)
T4 sequence (O95551 whole entry): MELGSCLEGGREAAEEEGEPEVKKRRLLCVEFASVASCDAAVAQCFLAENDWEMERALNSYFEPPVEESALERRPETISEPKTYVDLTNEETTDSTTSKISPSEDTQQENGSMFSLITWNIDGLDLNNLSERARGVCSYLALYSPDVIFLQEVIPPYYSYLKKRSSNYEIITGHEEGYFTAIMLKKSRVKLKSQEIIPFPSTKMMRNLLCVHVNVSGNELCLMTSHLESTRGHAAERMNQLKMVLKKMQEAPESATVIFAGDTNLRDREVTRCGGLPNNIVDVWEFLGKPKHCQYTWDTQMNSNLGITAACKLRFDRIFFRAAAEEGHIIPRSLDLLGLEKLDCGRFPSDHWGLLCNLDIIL

[8] = target: T5, Replicative DNA helicase DnaB (Mycobacterium tuberculosis, UniProt P9WMR3); test: DnaB intein splicing inhibitors, dose response, biochemical, cell-free fluorescence (AID 449749); format: functional
T5 sequence (P9WMR3 whole entry): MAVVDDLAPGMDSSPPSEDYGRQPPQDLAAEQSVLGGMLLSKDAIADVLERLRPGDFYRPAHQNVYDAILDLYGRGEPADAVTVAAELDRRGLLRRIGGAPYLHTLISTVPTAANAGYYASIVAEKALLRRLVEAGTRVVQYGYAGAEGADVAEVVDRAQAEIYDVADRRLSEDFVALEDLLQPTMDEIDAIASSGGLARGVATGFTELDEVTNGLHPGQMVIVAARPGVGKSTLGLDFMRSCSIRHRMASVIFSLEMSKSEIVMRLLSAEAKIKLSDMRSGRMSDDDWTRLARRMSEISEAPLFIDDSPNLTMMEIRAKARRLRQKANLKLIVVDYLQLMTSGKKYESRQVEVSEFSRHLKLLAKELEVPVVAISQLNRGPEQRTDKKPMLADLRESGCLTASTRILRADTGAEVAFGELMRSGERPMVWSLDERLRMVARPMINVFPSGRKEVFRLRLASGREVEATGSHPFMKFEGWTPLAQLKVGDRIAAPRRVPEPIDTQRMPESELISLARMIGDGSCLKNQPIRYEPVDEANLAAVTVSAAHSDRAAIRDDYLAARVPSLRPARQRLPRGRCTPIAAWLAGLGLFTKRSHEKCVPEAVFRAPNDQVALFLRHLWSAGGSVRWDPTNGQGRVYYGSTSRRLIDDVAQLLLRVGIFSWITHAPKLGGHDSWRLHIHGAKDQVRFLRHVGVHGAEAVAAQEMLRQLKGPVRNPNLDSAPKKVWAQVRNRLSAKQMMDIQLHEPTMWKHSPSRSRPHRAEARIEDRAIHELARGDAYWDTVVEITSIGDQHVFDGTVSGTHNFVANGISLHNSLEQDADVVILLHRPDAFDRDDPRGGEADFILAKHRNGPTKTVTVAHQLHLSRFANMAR

Interleukin-8 = Interleukin-8 (Homo sapiens, UniProt P10145); test: Dose Response confirmation of uHTS small molecule hits for cystic fibrosis induced NFkb Inhibitors in a PAF-induced IL8 counterscreen.; format: functional; conditions: read-out: IC50_Mean
[9] = blockers of HIV-1 envelope-mediated cell-cell fusion – cherry-pick, dose response (AID 652057); format: functional, cell-based
[10] = off-target signal loss in HeLa-CEM21 co-culture – HeLa F-luc CTL cells, cherry-picked, counter-screen for HIV-1 Env fusion inhibitor project, dose response (AID 652040); format: functional, cell-based;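 note: potency for signal decrease marking cytotoxic or nonspecific inhibition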
[11] = HIV-1 AD8 envelope cell-cell fusion blockers – cherry-pick, dose response (AID 652062); format: functional, cell-based;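 note: luciferase signal from cell-cell fusion driven by HIV-1 clade B AD8 Env; potency is for inhibitors of fusion seen as a drop in luminescence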
Genome polyprotein = Genome polyprotein (dengue virus type 2, UniProt P29990); test: flavivirus cap methylation enzyme inhibition – biochemical, confirmation dose response, primary screen (AID 588689); format: functional
[12] = target: T6, Small ubiquitin-related modifier 1 (Homo sapiens, UniProt P63165); test: SUMO1 protein-protein binding blockers, potency – biochemical, FRET, dose response (AID 624383); format: functional; conditions: read-out: IC50_Mean
[13] = target: T7, Rac GTPase-activating protein 1 (Homo sapiens, UniProt Q9H0H5); test: blockers of MgcRacGAP-driven Rac1 GTP hydrolysis – biochemical, ADP Hunter fluorescence, primary and confirmatory, confirmation (AID 624330); format: functional
T7 sequence (Q9H0H5 whole entry): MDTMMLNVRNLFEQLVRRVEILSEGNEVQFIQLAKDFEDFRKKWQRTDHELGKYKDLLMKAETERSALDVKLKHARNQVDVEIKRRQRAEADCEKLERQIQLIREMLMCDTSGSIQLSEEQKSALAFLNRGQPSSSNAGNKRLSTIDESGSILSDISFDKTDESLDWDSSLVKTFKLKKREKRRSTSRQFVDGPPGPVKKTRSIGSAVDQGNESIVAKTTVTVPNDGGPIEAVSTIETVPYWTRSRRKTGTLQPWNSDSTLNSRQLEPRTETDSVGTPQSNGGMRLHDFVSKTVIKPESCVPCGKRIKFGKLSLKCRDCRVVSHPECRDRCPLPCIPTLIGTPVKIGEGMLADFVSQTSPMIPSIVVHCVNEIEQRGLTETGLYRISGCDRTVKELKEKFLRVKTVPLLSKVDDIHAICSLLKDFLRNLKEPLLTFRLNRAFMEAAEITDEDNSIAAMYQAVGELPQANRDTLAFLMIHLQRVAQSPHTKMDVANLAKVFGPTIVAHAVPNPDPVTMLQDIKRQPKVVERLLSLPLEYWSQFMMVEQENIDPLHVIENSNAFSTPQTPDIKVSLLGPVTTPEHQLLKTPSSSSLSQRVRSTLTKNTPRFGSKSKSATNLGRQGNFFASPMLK

[14] = target: T6, Small ubiquitin-related modifier 1; test: SUMO1 protein interaction blockers, potency – biochemical, fluorescence polarization, uHTS hits, dose response (AID 624382); format: functional; conditions: read-out: IC50_Mean
[15] = target: T8, Small ubiquitin-related modifier 2 (Homo sapiens, UniProt P61956); test: disruption of SUMO2 interaction with SIM peptide – biochemical, fluorescence polarization, uHTS hits, selectivity assay for SUMO1 interaction inhibitor project, dose response (AID 624385); format: functional; conditions: read-out: IC50_Mean
[16] = target: T8, Small ubiquitin-related modifier 2; test: SUMO2 binding disruption by SUMO1 hits – biochemical, FRET, human SUMO2, uHTS hits, selectivity assay for SUMO1 interaction inhibitor project, dose response (AID 624384); format: functional; conditions: read-out: IC50_Mean
[17] = target: T9, Probable nicotinate-nucleotide adenylyltransferase (Staphylococcus aureus (strain N315), UniProt P65502); format: functional, Staphylococcus aureus subsp. aureus N315;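 for IC50 Mean: confirmatory dose-response retesting of NadD inhibitor hits first found in an ultra-high-throughput screen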
[18] = target: T9, Probable nicotinate-nucleotide adenylyltransferase; format: functional, Staphylococcus aureus subsp. aureus N315; conditions: read-out: IC50_Mean
[19] = target: Carboxy-terminal domain RNA polymerase II polypeptide A small phosphatase 1 (Homo sapiens, UniProt Q9GZU7); test: CTDSP1 inhibitors, concentration-response, biochemical, absorbance readout, ultra-high-throughput screen actives (AID 540297); format: functional
[20] = mouse fibroblast viability loss – cell-based, cherry-pick samples, set 2, cytotoxicity control for T. cruzi growth inhibitor project, dose response (AID 651817); format: functional; conditions: NIH3T3

T9 sequence (P65502 whole entry): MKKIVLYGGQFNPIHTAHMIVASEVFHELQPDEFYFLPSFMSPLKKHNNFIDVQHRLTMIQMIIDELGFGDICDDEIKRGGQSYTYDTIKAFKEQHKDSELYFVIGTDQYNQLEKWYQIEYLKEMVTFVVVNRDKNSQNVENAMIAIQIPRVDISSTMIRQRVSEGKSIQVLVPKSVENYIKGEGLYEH
T6 sequence (P63165 whole entry): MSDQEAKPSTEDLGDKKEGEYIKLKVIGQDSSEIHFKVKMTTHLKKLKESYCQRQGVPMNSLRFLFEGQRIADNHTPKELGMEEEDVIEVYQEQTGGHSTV
T8 sequence (P61956 whole entry): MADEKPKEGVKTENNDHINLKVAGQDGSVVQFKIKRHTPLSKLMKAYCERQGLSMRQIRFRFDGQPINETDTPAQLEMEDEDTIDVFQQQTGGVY
Chain of Genome polyprotein (P29990 2492-3391 limits assumed): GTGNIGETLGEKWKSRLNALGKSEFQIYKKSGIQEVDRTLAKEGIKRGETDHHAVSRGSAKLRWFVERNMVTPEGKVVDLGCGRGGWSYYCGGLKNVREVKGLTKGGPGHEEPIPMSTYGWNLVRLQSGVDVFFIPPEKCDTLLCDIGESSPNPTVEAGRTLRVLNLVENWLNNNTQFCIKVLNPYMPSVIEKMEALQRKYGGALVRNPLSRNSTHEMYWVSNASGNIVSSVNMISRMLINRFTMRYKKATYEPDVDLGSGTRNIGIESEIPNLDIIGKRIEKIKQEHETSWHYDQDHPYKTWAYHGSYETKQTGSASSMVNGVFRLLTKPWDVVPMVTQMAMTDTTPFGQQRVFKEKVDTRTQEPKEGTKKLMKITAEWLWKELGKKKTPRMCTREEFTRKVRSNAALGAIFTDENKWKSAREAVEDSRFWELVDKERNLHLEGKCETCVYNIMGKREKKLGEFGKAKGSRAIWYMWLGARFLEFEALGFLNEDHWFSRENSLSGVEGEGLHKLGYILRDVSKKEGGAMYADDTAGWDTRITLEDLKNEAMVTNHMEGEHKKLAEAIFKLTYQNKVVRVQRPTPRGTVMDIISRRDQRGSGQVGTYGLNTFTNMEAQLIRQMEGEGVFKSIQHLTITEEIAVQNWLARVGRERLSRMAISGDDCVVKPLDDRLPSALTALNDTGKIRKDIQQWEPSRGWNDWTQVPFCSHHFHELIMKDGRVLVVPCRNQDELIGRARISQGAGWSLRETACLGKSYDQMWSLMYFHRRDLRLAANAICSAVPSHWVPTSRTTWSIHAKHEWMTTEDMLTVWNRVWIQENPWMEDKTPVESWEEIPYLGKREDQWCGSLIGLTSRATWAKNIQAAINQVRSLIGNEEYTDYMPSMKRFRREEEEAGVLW
Chain of Interleukin-8 (P10145 whole entry, the tested form may be a part): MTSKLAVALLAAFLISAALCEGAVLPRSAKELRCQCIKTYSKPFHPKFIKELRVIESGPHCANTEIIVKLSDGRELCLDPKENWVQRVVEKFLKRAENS
Chain of Mitochondrial peptide methionine sulfoxide reductase (P54149 whole entry): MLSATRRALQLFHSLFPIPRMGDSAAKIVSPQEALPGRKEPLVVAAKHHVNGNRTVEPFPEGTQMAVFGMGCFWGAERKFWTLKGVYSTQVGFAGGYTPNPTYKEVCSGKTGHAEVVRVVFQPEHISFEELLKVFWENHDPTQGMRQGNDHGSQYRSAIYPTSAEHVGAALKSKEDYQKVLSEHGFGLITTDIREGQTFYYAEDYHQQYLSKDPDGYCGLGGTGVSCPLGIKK
Chain of Sentrin-specific protease 1 (Q9P0U3 whole entry, the tested form may be a part): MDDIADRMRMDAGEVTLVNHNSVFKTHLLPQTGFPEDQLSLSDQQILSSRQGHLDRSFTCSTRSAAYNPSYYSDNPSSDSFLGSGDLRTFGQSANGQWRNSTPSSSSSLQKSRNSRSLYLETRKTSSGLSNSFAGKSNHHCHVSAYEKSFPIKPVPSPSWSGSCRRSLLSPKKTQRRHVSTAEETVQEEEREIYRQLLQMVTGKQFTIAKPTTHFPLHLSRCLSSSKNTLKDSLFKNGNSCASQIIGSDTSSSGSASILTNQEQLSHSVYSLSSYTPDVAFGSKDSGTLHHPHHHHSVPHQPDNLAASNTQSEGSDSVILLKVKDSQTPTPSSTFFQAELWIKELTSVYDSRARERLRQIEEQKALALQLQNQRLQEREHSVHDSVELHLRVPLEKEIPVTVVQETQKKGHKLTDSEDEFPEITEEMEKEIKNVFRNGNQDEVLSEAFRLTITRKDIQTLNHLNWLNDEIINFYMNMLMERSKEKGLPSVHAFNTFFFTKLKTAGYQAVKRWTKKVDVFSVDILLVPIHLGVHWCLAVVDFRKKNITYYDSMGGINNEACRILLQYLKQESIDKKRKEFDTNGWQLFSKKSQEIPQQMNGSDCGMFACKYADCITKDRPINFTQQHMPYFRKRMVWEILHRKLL
Chain of Carboxy-terminal domain RNA polymerase II polypeptide A small phosphatase 1 (Q9GZU7 whole entry, the tested form may be a part): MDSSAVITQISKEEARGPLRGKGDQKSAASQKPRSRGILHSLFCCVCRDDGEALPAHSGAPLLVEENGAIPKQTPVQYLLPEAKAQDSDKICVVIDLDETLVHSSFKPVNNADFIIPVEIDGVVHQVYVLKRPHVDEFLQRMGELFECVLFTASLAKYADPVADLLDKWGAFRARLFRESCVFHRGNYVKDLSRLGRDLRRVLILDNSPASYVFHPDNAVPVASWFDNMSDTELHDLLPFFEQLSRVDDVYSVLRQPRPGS

SMILES: Cc1c(OCC(=O)N(C)C)ccc2c(-c3ccccc3)cc(=O)oc12
- IC50 [1]: 93.6 µM (inactive)

SMILES: Cc1noc(C)c1COC(=O)c1cc(C)n(-c2ccccc2)c1C
- EC50 [2]: > 53 µM (inactive)
- IC50 [3]: > 20 µM (inactive)
- IC50 [4]: 6.04 µM (active)

SMILES: Cc1nc2ccc(NS(=O)(=O)c3ccc(F)cc3F)cc2s1
- IC50 [5]: 18.4 µM (active)

SMILES: COc1ccc(O)c(C(c2c(C)[nH][nH]c2=O)c2c(C)[nH][nH]c2=O)c1
- EC50 (Protein RecA): 1.17 µM (active)
- IC50 [6]: 7.14 µM (active)
- IC50 [7]: 33.6 µM (inactive)
- AC50 [8]: 1.42 µM (active)

SMILES: COc1ccc(-c2cc(=O)oc3c(C)c(O)ccc23)cc1
- IC50 (Interleukin-8): > 79 µM (inactive)
- AC50 [9]: 3.8 µM (active)
- AC50 [10]: 9.72 µM (active)
- AC50 [11]: 5.69 µM (active)

SMILES: CCCCCC(=O)Nc1cc(S(=O)(=O)O)cc2cc(S(=O)(=O)O)cc(O)c12
- IC50 (Genome polyprotein): 30 µM (active)
- IC50 [12]: 2.29 µM (active)
- IC50 [13]: 31.7 µM (active)
- IC50 [14]: 19.2 µM (active)
- IC50 [15]: 6.81 µM (active)
- IC50 [16]: 920 nM (active)

SMILES: CC1CCCCC1NC(=O)COC(=O)c1c2c(nc3ccccc13)/C(=C\c1ccco1)CC2 (stereo not drawn)
- IC50 [17]: 6.81 µM (active)
- IC50 [18]: 14.6 µM (active)
- IC50 [19]: 5.27 µM (active)

SMILES: C[C@@H]1CN([C@@H](C)CO)C(=O)Cc2cc(NS(=O)(=O)c3ccc(F)cc3)ccc2O[C@@H]1CN(C)Cc1ccc(Cl)c(Cl)c1
- AC50 [20]: 11 µM (active)
